In patent US20220380341A1, “INHIBITORS OF HIV-1 NEF FOR THE TREATMENT OF HIV DISEASE” (priority 2018, published 2022):
pIC50, pKd: −log10 of the molar value. Where two headings read alike, the source gives them in different places.

What was measured:
HIV-1NL4-3 = test: HIV-1 infectivity assay in TZM-bl reporter cell line (LTR-luciferase, 48 h); type: cell-based; settings: Human immunodeficiency virus 1, TZM-bl
Method in brief: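 Luciferase read-out 48 h post-infection; compound at 1 μM during HIV-1NL4-3 infection of TZM-bl cells. Percent inhibition scaled to DMSO wild-type virus (0%) and DMSO Nef-defective virus (100% of Nef-dependent effect). Viability checked separately in uninfected cells by Cell Titer Blue.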

TZM-bl cell line = type: cell-based; settings: human, 1 μM
Method in brief: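 Nef-dependent infectivity in TZM-bl cells: HIV-1NL4-3 infection with 1 μM compound, luciferase read at 48 h, normalized against DMSO wild-type and Nef-defective controls. Compound cytotoxicity in uninfected cells measured by Cell Titer Blue.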

HIV-1 NefNL4-3 = HIV-1 NefNL4-3 (Human immunodeficiency virus type 1 group M subtype B, UniProt P03406, A33V/T15A/T51N/V11I); test: Surface plasmon resonance binding to recombinant full-length Nef (NL4-3); settings: for Kd: Reichert SPR Nef NL43 (M) two-step fitting, two-step induced-fit model, Reichert SPR, Table 3; for T, minutes (residence time): 2-step induced fit, T = 1/koff2; for RU30/RUNef (extent of binding): response units at 30 μM relative to Nef immobilized on the SPR chip
HIV-1 Nef SF2 = biological target: T1, HIV-1 Nef SF2 (Human immunodeficiency virus type 1 group M subtype B, UniProt P03407); test: biochemical; type: binding; settings: two-step induced-fit model, Reichert SPR, read-out: Reichert SPR Nef SF2 (M) two-step fitting
T1 construct: made in house

[1] = biological target: Nef from SIV (strain mac239) (Simian immunodeficiency virus, UniProt Q5QGG3); test: biochemical
Description: Also shown are SPR data recorded on a Reichert 4-channel SPR instrument. […] Recombinant Nef is immobilized on the biosensor surface, and each compound is injected and association/dissociation kinetics are recorded. The resulting data for the 3 isoforms are each best-fit using both a two-site model and a two-step, induced-fit model. Dissociation constants (KD), calculated from the kinetic association and dissociation constants from all three isoforms, are shown in columns 6-7. Data were fit using three regimes and the resulting KD: from each model are shown in the Table: 1:1 Langmuir fit; 2-site fit, which yields low and high affinity components; and a 2-step induced fit model.

HIV-1 NL4-3 = test: HIV-1 replication in normal donor PBMCs (p24 Gag AlphaLISA); type: cell-based; settings: Human immunodeficiency virus 1, NL43, PBMC, 96 h, Table 1, 4 days, words (Not active, Borderline) where no bound is given
Description: FIG. 4. Inhibition of HIV-1 replication by compounds disclosed herein in PBMCs. Donor PBMCs were infected with HIV-1 in the presence of inhibitor concentrations ranging from 1 to 1,000 nM or the DMSO carrier solvent as a negative control (0.1% DMSO final). Replication was assessed by p24 Gag AlphaLISA (Perkin Elmer) […]. Each donor was also infected with Nef-defective HIV-1 to establish the baseline for Nef-dependent enhancement of replication in each culture. Cytotoxicity was assessed in uninfected PBMCs over the same incubation period using the CellTiter-Blue assay (Promega). Data were fit by non-linear regression analysis (GraphPad Prism v.7.04) to determine the IC50 and CC50 values shown.
The tables also show data for HIV-1 Replication in normal donor peripheral blood mononuclear cells (PBMCs), which is assay is conducted as follows:
Non-HLA-typed buffy coats (Source: Pittsburgh Central Blood Bank, #E3755) are received and processed within 24 hours of blood donation. PBMCs are isolated via rocking for RBC separation following 1:1 dilution with PBS, followed by Ficoll gradient centrifugation. The lymphocyte fraction is removed and washed several times for a final concentration of ˜150-300×10^6 cells per donor. Cells are activated for 3 days with 1-5 μg/mL PHA (Sigma) and 50 U/mL IL-2. Cells are plated at 750,000 cells/ml and viability is checked at day 3 using the Cell Titer Blue assay (Promega). If cells are >90% viable, then they are infected with HIV-1 NL4-3, wild-type or Δ-Nef mutant (input typically 30-500 pg/mL p24 capsid equivalents) in the presence or absence of Nef inhibitor analogs. IL-2 is included in the media at the time of infection. After 4 days, cells are lysed with 1% Triton X-100 for 1.5 h, checked for viability via Cell Titer Blue, and frozen/stored at −20° C. HIV-1 replication is assessed with a high-sensitivity HIV-1 p24 AlphaLISA assay (Perkin Elmer) in ½-volume 96-well plates, using one-half of the recommended assay volumes for all reagents (including samples). Assays are read on the BioTek Cytation5 instrument; readout is in AlphaUnits and replication in p24 pg/mL is determined using an HIV-1 p24 capsid protein standard included in the Alpha kit.

[2] = 1 μM, TZM-bl, normalized: DMSO wild-type HIV-1 = 0%, Nef-defective HIV-1 = 100%, read-out: HIV-1 Infectivity % Inhibition norm. to Δ-Nef @ 1 μM
[3] = 48 h, Table 1, TZM-bl cells, 1 μM, 48 h, 100% = Nef-defective HIV-1, read-out: HIV-1 Infectivity % Inhibition Norm. to Δ-Nef @ 1 μM
[4] = Nef NL4-3 Binding, SPR 2-state fitting KD, Table 1, 2-step induced-fit model
[5] = read-out: Nef NL4-3 Binding, SPR 1:1 or 2-site fitting KD2, Table 1, 2-site fit, second component
[6] = 1.0 μM, TZM-bl reporter cell line, Table 4, read-out: % Infectivity Inhibition
[7] = KD, M, Table 4, SPR fit 2-step induced fit, KD = koff/kon × koff2/(koff2 + kon2)

SMILES | inhibition at 1 µM (HIV-1NL4-3; [2]) | inhibition at 1 µM (HIV-1NL4-3; [3]) | Percent Viability @ 1 μM (TZM-bl cells) (TZM-bl cell line) | pKd (HIV-1 NefNL4-3) | pKd (HIV-1 NefNL4-3; [4]) | Kd (HIV-1 NefNL4-3; KD) | pKd (HIV-1 NefNL4-3; [5]) | Kd (HIV-1 Nef SF2) | pKd [1] | inhibition at 1 µM (HIV-1NL4-3; [6]) | % Cell Viability (TZM-bl cell line) | pKd (HIV-1 NefNL4-3; [7]) | T, minutes (residence time) (HIV-1 NefNL4-3; Table 4) | RU30/RUNef (extent of binding) (HIV-1 NefNL4-3) | pKd (HIV-1 NefNL4-3; Nef NL4-3 Binding, SPR 1:1 or 2-site fitting KD2, Table 1, 2-site fit, second component) | pIC50 (HIV-1 NL4-3)
CC(C)OC(=O)N1CCC(c2nn(-c3nc4ccccc4[nH]3)c(O)c2CCC2CCOCC2)CC1 [Compound I-722, propan-2-yl 4-[1-(1H-1,3-benzodiazol-2-yl)-5-hydroxy-4-[2-(oxan-4-yl)ethyl]-1H-pyrazol-3-yl]piperidine-1-carboxylate] | 53.4% | 53.4% | 86.8% | 5.65 | 5.26 | 5.49e-06 M | 5.14 | 1.28e-07 M | 5.31 |  |  |  |  |  |  | 
Oc1c(CCc2ccc(F)cc2)c(C2CC2)nn1-c1nc2cc(Cl)ccc2[nH]1 [Compound I-170, 1-(5-chloro-1H-1,3-benzodiazol-2-yl)-3-cyclopropyl-4-[2-(4-fluorophenyl)ethyl]-1H-pyrazol-5-ol] | 67.1% | 67.1% | 98.8% |  | 7.90 | 1.25e-08 M | 5.70 | 4.9e-07 M | 8.54 | 67.1% | 98.8% | 7.90 | 8.01E + 02 minutes | 2.34E- 02 |  | 
Oc1c(CCc2ccc(F)cc2)c(C2CC2)nn1-c1nc2cccnc2[nH]1 [Compound I-308, 3-cyclopropyl-4-[2-(4-fluorophenyl)ethyl]-1-{3H-imidazo[4,5-b]pyridin-2-yl}-1H-pyrazol-5-ol] | 61.4% | 61.4% | 100.1% | 6.03 | 5.39 | 4.06e-06 M |  | 2.91e-06 M | 5.41 | 61.4% | 100% | 5.39 | 5.81E + 00 minutes | 6.06E- 03 | 5.66 | 
CC(C)(O)C(=O)N1CCC(CCc2c(C3CC3)nn(-c3nc4cc(Cl)ccc4[nH]3)c2O)CC1 [Compound I-712, 1-(4-{2-[1-(5-chloro-1H-1,3-benzodiazol-2-yl)-3-cyclopropyl-5-hydroxy-1H-pyrazol-4-yl]ethyl}piperidin-1-yl)-2-hydroxy-2-methylpropan-1-one] | 52.6% | 52.6% | 104.4% | 7.16 | 7.70 | 1.99e-08 M | 4.99 | 5.9e-09 M | 8.66 | 52.3% | 100% | 7.70 | 7.54E + 02 minutes | 1.07E- 02 |  | 
CC(=O)N1CCC(Cc2c(-c3ccc(C(F)(F)F)cc3)nn(-c3nc4ccccc4[nH]3)c2O)CC1 [Compound I-720, 1-(4-{[1-(1H-1,3-benzodiazol-2-yl)-5-hydroxy-3-[4-(trifluoromethyl)phenyl]-1H-pyrazol-4-yl]methyl}piperidin-1-yl)ethan-1-one] | 92.2% | 92.2% | 71.4% | 5.92 | 5.74 | 1.81e-06 M |  |  | 7.66 | 92.2% | 71.4% | 5.74 | 1.32E + 00 minutes | 2.80E- 03 |  | 
CC(C)(C)OC(=O)N1CCC(CCc2c(-c3cccc(S(C)(=O)=O)c3)nn(-c3nc4ccccc4[nH]3)c2O)CC1 [Compound I-210, tert-butyl 4-{2-[1-(1H-1,3-benzodiazol-2-yl)-5-hydroxy-3-(3-methanesulfonylphenyl)-1H-pyrazol-4-yl]ethyl}piperidine-1-carboxylate] | 95.4% | 95.4% | 83.7% | 6.05 | 5.34 | 4.56e-06 M | 5.09 | 4.31e-06 M | 6.15 | 95.4% | 83.7% | 5.34 | 1.06E + 01 minutes | 5.18E- 03 |  | 
CN(C)S(=O)(=O)N1CCC(c2nn(-c3nc4ccccc4[nH]3)c(O)c2CCc2ccc(F)cc2)CC1 [Compound I-746, 4-[1-(1H-1,3-benzodiazo1-2-y1)-4-[2-(4-fluorophenyl)ethyl]-5-hydroxy-1H-pyrazol-3-yl]-N,N-dimethylpiperidine-1-sulfonamide] | 194% | 194% | 101.6% | 6.10 |  |  |  | 6.84e-06 M | 7.31 |  |  |  |  |  |  | 
Oc1c(CCc2ccc(F)cc2)c(C2CCC2)nn1-c1nc2ccccc2[nH]1 [Compound I-129, 1-(1H-1,3-benzodiazol-2-yl)-3-cyclobutyl-4-[2-(4-fluorophenyl)ethyl]-1H-pyrazol-5-ol] |  | 60.9% | 99.3% | 8.62 | 10.43 |  | 4.77 |  |  | 60.9% | 99.3% | 10.43 | 5.19E + 05 minutes | 1.28E- 02 |  | ≥ 8.00
Oc1c(CC2CCOCC2)c(-c2ccc(F)cc2)nn1-c1nc2ccccc2[nH]1 [Compound I-151, 1-(1H-1,3-benzodiazol-2-yl)-3-(4-fluorophenyl)-4-[(oxan-4-yl)methyl]-1H-pyrazol-5-ol] | 106% | 106% | 83.0% | 6.27 | 5.25 | 5.65e-06 M | 4.33 | 3.5e-06 M | 5.84 | 100% | 83.0% | 5.20 | 4.68E + 00 minutes | 8.50E- 03 |  | 
CC(C)(C)OC(=O)N1CCC(CCc2c(-c3ccc(C(F)(F)F)cc3)nn(-c3nc4ccccc4[nH]3)c2O)CC1 [Compound I-204] |  | 5.8% | 95.1% |  | 10.64 |  | 10.20 |  |  | 5.8% | 95.1% | 10.64 |  |  |  | ≥ 6.00
